Results taken from patent US9403832B2, “Pyrazolo[1,5-a]pyrimidine-based compounds, compositions comprising them, and methods of their use” (Lexicon Pharmaceuticals, Inc., priority 2012, dated 2016).
pIC50: −log10 of the molar value.

How the values were obtained:
AAK1 [1] = biological target: T1, AAK1 (Homo sapiens, UniProt Q2M2I8); assay: HEK281 cell-based assay (CBA); details: HEK293F cells transfected with full length human AAK1 and AP2M1; phospho-mu2 Western blot; 3 hours incubation
T1 construct: NP_055726.2
Method: HEK293F cells were cultured in media containing DMEM (Gibco, cat. #11965), 10% FBS (SAFC Biosciences, cat. #12103C), 1× GPS (glutamine, penicillin and streptomycin). On day one, cells were plated on a 10 cm dish so that they are ˜80% confluent at time of transfection. Roughly 12 million cells were in a 10 cm dish at time of transfection. On day two, each dish was transfected with 48 ug DNA and 144 ul Lipofectamine 2000 (Invitrogen, cat. #11668-019). The DNA was comprised of a mixture (per 10 cm dish) containing 3 ug AAK1/HA/pIRES (full length human, NCBI accession no. NP_055726.2), 45 μg Flag/AP2MI/pcDNA (full length human), and 1.5 ml OPTI-MEM. The Lipofectamine 2000 is made up of a mixture (per 10 cm dish) containing 144 μl Lipofectamine 2000 and 1.5 ml OPTI-MEM. Each mixture was transferred to individual 15 ml tubes and incubated at RT for 5 minutes, and then the two mixes were combined and incubated at RT for 20 minutes.
Growth media was then aspirated from each 10 cm plate and replaced with 10 ml of DMEM+10% FBS (no GPS). Finally, 3 ml DNA/Lipofectamine mix was added to each 10 cm dish and mix gently followed by incubate of plate overnight at 37° C. and 5% CO2.
On day three, compounds were diluted in 100% DMSO at 1000× final concentration, followed by 3-fold serial dilutions for a total of 5 concentrations tested. Four compounds were tested per 10 cm dish. One ul of each compound dilution was then pipetted into a deep-well, 96-well plate, followed by addition of 500 μl DMEM+0.5% FBS into each well for a 2× final concentration of each compound. Cells were resuspended in a 10 cm dish by simple pipetting (HEK293 cells come off the plate that easy at this point) and then transferred to a 50 ml conical tube and pelleted by centrifugation at 1000 rpm for 5 min. Cell pellets were then resuspended in 2.75 ml DMEM+0.5% FBS per 10 cm dish and 100 μl of cell suspension transferred into each well of 96-well TC plate. Finally, 100 μl of 2× compound diluted in DMEM+0.5% FBS was then added into wells containing cell suspension for a 1× final concentration. Plates were then incubated at 37° C. and 5% CO2 for 3 hours followed by transferring of cell suspensions from each well into 12-tube PCR strips. The PCR strips were spun in a tip rack at 1000 rpm for 5 minutes to pellet cells and media was then removed by pipetting without disturbing the cell pellet.
To prepare for Western Blot analysis, cell pellets were resuspend in 40 ul 1× LDS-PAGE sample buffer (Invitrogen, cat.# NP0008)+2× Halt phophatase and protease inhibitor cocktail (Thermo Scientific, cat. #1861284), followed by sonicating each with microtip sonicator set at 5 for 8-10 seconds. Five ul of 10× NuPage Sample Reducing Agent (with 50 mM DTT) was to each sample followed by heat denaturing at 70 C for 10 min on PCR machine. A total of 10 μl per sample was loaded into each lane of a 4-20% Tris-Glycine Criterion 26-well gel (Biorad, cat. #345-0034) for the phospho-mu2 blot and 10 μl per lane in a 4-12% Bis-Tris (+MES buffer) NuPAGE 26-well gel (Invitrogen, cat.# WG1403BX10) for the mu2 blot. For controls, 2 ng of phospho-mu2 or 20 ng mu2/Flag proteins were loaded in the last well of each gel. After SDS-PAGE, samples on each gel were transferred to PVDF membrane using an iBlot and membranes were blocked for one hour in TBST+5% milk, followed by wash 3× for 5-10 min with TBST. Criterion gels were probed with rabbit anti-phospho-mu2 (1:5000; a rabbit polyclonal antibody produced by New England Peptide and affinity purified at Lexicon) in TBST+5% BSA, whereas, NuPAGE gels were probed with mouse anti-Flag (1:500; Sigma, cat.# F1804) in TBST+5% milk, and these primary antibodies were incubated overnight at 4° C. on a rocker.

AAK1 [2] = biological target: T1, AAK1; assay: P81 filter plate assay; type: biochemical; details: full-length human AAK1, Mu2 substrate, 33P-ATP
Summary of the method: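 Full-length human AAK1 (0.2 nM, 2×) was pre-incubated 10 min at RT with compounds (top concentration 96 μM in the dilution plate), then reacted 1 h at RT with full-length human Mu2 (0.2 μM, 2×), cold ATP (2 μM, 2×) and ³³P-ATP. Reactions were stopped with phosphoric acid and captured on P81 filters for scintillation counting.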

T1 sequence (Q2M2I8 1-863 isoform Q2M2I8-2): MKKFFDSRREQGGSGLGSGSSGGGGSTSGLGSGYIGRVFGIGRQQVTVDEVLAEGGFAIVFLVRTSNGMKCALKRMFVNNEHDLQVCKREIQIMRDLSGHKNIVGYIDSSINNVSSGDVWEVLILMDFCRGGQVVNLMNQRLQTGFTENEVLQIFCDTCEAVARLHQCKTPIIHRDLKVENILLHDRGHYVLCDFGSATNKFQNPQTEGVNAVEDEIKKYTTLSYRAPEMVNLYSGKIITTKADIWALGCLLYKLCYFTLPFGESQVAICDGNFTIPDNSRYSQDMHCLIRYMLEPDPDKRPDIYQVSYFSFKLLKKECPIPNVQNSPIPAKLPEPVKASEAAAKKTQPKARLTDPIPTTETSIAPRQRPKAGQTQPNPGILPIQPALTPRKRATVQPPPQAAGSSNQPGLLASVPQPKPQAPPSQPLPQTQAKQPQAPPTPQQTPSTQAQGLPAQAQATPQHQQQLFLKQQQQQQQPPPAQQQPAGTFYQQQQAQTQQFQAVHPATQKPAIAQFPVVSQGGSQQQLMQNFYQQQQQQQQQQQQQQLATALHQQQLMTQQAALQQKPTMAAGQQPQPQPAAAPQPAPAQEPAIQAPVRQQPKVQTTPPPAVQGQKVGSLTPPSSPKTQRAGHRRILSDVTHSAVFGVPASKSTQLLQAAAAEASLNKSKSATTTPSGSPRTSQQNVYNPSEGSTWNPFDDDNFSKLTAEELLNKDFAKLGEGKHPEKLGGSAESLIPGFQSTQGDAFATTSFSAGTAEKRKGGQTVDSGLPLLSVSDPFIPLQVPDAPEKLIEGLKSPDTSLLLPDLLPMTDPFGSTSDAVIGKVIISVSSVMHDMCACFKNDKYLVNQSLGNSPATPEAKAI

Row | pIC50 (AAK1 [1]) | pIC50 (AAK1 [2]) | Structure (SMILES)
1 | ≥ 7.00 | ≥ 8.00 | [2H]C1([2H])N(C(=O)OCCOC)C([2H])([2H])C([2H])([2H])N(c2ccn3ncc(-c4cccnc4OC)c3n2)C1([2H])[2H] [2-methoxyethyl 4-(3-(2-methoxypyridin-3-yl)pyrazolo[1,5-a]pyrimidin-5-yl)-d8-piperazine-1-carboxylate]
2 | ≥ 8.00 | ≥ 8.00 | COc1ncccc1-c1cnn2ccc(N3CCN(C(=O)C4(N)CCCC4)CC3)nc12 [(1-aminocyclopentyl)(4-(3-(2-methoxypyridin-3-yl)pyrazolo[1,5-a]pyrimidin-5-yl)piperazin-1-yl)methanone]
3 | ≥ 6.00 | ≥ 8.00 | COCC(C)(C)OC(=O)N1CCN(c2ccn3ncc(-c4cccnc4OC)c3n2)CC1 [1-methoxy-2-methylpropan-2-yl 4-(3-(2-methoxypyridin-3-yl)pyrazolo[1,5-a]pyrimidin-5-yl)piperazine-1-carboxylate]
4 | ≥ 7.00 | ≥ 8.00 | COc1ncccc1-c1cnn2ccc(N3CCN(C(=O)N4CCCCC4)CC3)nc12 [(4-(3-(2-methoxypyridin-3-yl)pyrazolo[1,5-a]pyrimidin-5-yl)piperazin-1-yl)(piperidin-1-yl)methanone]
5 | ≥ 7.00 | ≥ 8.00 | COc1cccc(-c2cnn3ccc(N4CCN(C(=O)OC(C)C)CC4)nc23)n1 [isopropyl 4-(3-(6-methoxypyridin-2-yl)pyrazolo[1,5-a]pyrimidin-5-yl)piperazine-1-carboxylate]
6 | ≥ 8.00 | ≥ 8.00 | COC[C@H](C)OC(=O)N1CCN(c2ccn3ncc(-c4cccnc4OC)c3n2)CC1 [(S)-1-methoxypropan-2-yl 4-(3-(2-methoxypyridin-3-yl)pyrazolo[1,5-a]pyrimidin-5-yl)piperazine-1-carboxylate]
7 | ≥ 8.00 | ≥ 8.00 | COCCOC(=O)N1CCN(c2ccn3ncc(-c4cc(F)ccc4OC)c3n2)CC1 [2-methoxyethyl 4-(3-(5-fluoro-2-methoxyphenyl)pyrazolo[1,5-a]pyrimidin-5-yl)piperazine-1-carboxylate]
8 | ≥ 8.00 | ≥ 8.00 | COc1ncccc1-c1cnn2ccc(N3CCN(C(=O)OCC(F)(F)F)CC3)nc12 [2,2,2-trifluoroethyl 4-(3-(2-methoxypyridin-3-yl)pyrazolo[1,5-a]pyrimidin-5-yl)piperazine-1-carboxylate]
9 | ≥ 7.00 | ≥ 8.00 | [2H]C([2H])([2H])Oc1ncccc1-c1cnn2ccc(N3CCN(C(=O)OCC)CC3)nc12 [ethyl 4-(3-(2-d3-methoxypyridin-3-yl)pyrazolo[1,5-a]pyrimidin-5-yl)piperazine-1-carboxylate]
10 | ≥ 8.00 | ≥ 8.00 | COc1ncccc1-c1cnn2ccc(N3CCN(C(=O)OC4COC4)CC3)nc12 [oxetan-3-yl 4-(3-(2-methoxypyridin-3-yl)pyrazolo[1,5-a]pyrimidin-5-yl)piperazine-1-carboxylate]
11 | ≥ 8.00 | ≥ 8.00 | CC(C)(C)OC(=O)N1CCC[C@H]1CNc1ccn2ncc(-c3ccc(CN)cc3)c2n1 [(S)-tert-butyl 2-(((3-(4-(aminomethyl)phenyl)pyrazolo[1,5-a]pyrimidin-5-yl)amino)methyl)pyrrolidine-1-carboxylate]
12 | ≥ 8.00 | ≥ 8.00 | COc1nc(C)ccc1-c1cnn2ccc(N3CCN(C(=O)OC(C)(C)C)CC3)nc12 [tert-butyl 4-(3-(2-methoxy-6-methylpyridin-3-yl)pyrazolo[1,5-a]pyrimidin-5-yl)piperazine-1-carboxylate]
13 | ≥ 8.00 | ≥ 8.00 | COc1ncccc1-c1cnn2ccc(N3CCN(C(=O)OC(C)(C)C)CC3)nc12 [tert-butyl 4-(3-(2-methoxypyridin-3-yl)pyrazolo[1,5-a]pyrimidin-5-yl)piperazine-1-carboxylate]
14 | ≥ 8.00 | ≥ 8.00 | CCOC(=O)N1CCC[C@H]1CNc1ccn2ncc(-c3ccccc3OC)c2n1 [(S)-ethyl 2-(((3-(2-methoxyphenyl)pyrazolo[1,5-a]pyrimidin-5-yl)amino)methyl)pyrrolidine-1-carboxylate]
15 | ≥ 7.00 | ≥ 8.00 | CCOC(=O)N1CCN(c2ccn3ncc(-c4cc(C)cnc4OC)c3n2)CC1 [ethyl 4-(3-(2-methoxy-5-methylpyridin-3-yl)pyrazolo[1,5-a]pyrimidin-5-yl)piperazine-1-carboxylate]
16 | ≥ 8.00 | ≥ 8.00 | COc1ccc(F)cc1-c1cnn2ccc(N3CCN(C(=O)O[C@@H]4CCOC4)CC3)nc12 [(R)-tetrahydrofuran-3-yl 4-(3-(5-fluoro-2-methoxyphenyl)pyrazolo[1,5-a]pyrimidin-5-yl)piperazine-1-carboxylate]
17 | ≥ 8.00 | ≥ 8.00 | CC(C)C[C@H](N)C(=O)N1CCN(c2ccn3ncc(-c4ccccc4)c3n2)CC1 [(S)-2-amino-4-methyl-1-(4-(3-phenylpyrazolo[1,5-a]pyrimidin-5-yl)piperazin-1-yl)pentan-1-one]
18 | ≥ 7.00 | ≥ 8.00 | COc1ccc(F)cc1-c1cnn2ccc(N3CC[C@H](N(C)C(=O)OC(C)C)C3)nc12 [(S)-isopropyl (1-(3-(5-fluoro-2-methoxyphenyl)pyrazolo[1,5-a]pyrimidin-5-yl)pyrrolidin-3-yl)(methyl)carbamate]
19 | ≥ 7.00 | ≥ 8.00 | COc1ncccc1-c1cnn2ccc(N3CCN(C(=O)OC4CCOCC4)CC3)nc12 [tetrahydro-2H-pyran-4-yl 4-(3-(2-methoxypyridin-3-yl)pyrazolo[1,5-a]pyrimidin-5-yl)piperazine-1-carboxylate]
20 | ≥ 8.00 | ≥ 8.00 | COc1ccccc1-c1cnn2ccc(N3CCN(C(=O)[C@@H](N)C(C)(C)C)CC3)nc12 [(S)-2-amino-1-(4-(3-(2-methoxyphenyl)pyrazolo[1,5-a]pyrimidin-5-yl)piperazin-1-yl)-3,3-dimethylbutan-1-one]
21 | ≥ 7.00 | ≥ 8.00 | COc1ncccc1-c1cnn2ccc(N3CC[C@H](N(C)C(=O)OC(C)C)C3)nc12 [(S)-isopropyl (1-(3-(2-methoxypyridin-3-yl)pyrazolo[1,5-a]pyrimidin-5-yl)pyrrolidin-3-yl)(methyl)carbamate]
22 | ≥ 7.00 | ≥ 8.00 | CCOC(=O)N1CCN(c2ccn3ncc(-c4cc(F)cnc4OC)c3n2)CC1 [ethyl 4-(3-(5-fluoro-2-methoxypyridin-3-yl)pyrazolo[1,5-a]pyrimidin-5-yl)piperazine-1-carboxylate]
23 | ≥ 8.00 | ≥ 8.00 | COc1ncccc1-c1cnn2ccc(N3CCN(C(=O)[C@@H](N)C(C)(C)C)CC3)nc12 [(S)-2-amino-1-(4-(3-(2-methoxypyridin-3-yl)pyrazolo[1,5-a]pyrimidin-5-yl)piperazin-1-yl)-3,3-dimethylbutan-1-one]
24 | ≥ 8.00 |  | CC(C)COC(=O)N(C)CCNc1ccn2ncc(-c3ccc(C(N)=O)cc3)c2n1 [isobutyl (2-((3-(4-carbamoylphenyl)pyrazolo[1,5-a]pyrimidin-5-yl)amino)ethyl)(methyl)carbamate]
